{"source": "patent US9993494B2", "about": "“Compositions and methods for treating fibrotic disease” (eFFECTOR Therapeutics, Inc., priority 2014, dated 2018)", "test_system": "normal human lung fibroblasts", "assay": "Ribosomal profiling: translational efficiency in TGFβ-treated fibroblasts", "format": "cell-based", "how_it_was_run": "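Genome-wide RPF and total RNA libraries (ARTseq, RNA-Seq) were made from lysates of cycloheximide-treated, PBS-washed cells. After trimming and human-genome mapping, per-gene coding-region counts were compared between RPF and RNA for translational efficiency. Genes scoring low in either fraction were dropped.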", "data": [{"substance": "TGFβ", "values": [{"measurement": "Log2 TE RPS8", "setting": "ENSG00000142937, 5 replicates", "value": 1.611}, {"measurement": "Log2 TE ACTA1", "setting": "ENSG00000143632, 5 replicates", "value": "−2.018"}, {"measurement": "change in translational profile of ACTA1 caused by TGFβ", "setting": "ENSG00000143632, Control vs. TGFβ", "value": "A (A = <−2.5)"}, {"measurement": "Log2 TE PLEKHA6", "setting": "ENSG00000143850, 5 replicates", "value": "−2.069"}, {"measurement": "change in translational profile of PLEKHA6 caused by TGFβ", "setting": "ENSG00000143850, Control vs. TGFβ", "value": "B (B = <−1.5 to −2.5)"}, {"measurement": "Log2 TE RPS27A", "setting": "ENSG00000143947, 5 replicates", "value": 1.275}, {"measurement": "Log2 TE AFF3", "setting": "ENSG00000144218, 5 replicates", "value": 1.146}, {"measurement": "Log2 TE RPL32", "setting": "ENSG00000144713, 5 replicates", "value": 1.916}, {"measurement": "change in translational profile of RPL32 caused by TGFβ", "setting": "ENSG00000144713, Control vs. TGFβ", "value": "E (E = <1.5 to 2.5)"}, {"measurement": "Log2 TE NICN1", "setting": "ENSG00000145029, 5 replicates", "value": 1.403}, {"measurement": "Log2 TE RPS3A", "setting": "ENSG00000145425, 5 replicates", "value": 1.661}, {"measurement": "Log2 TE RPL37", "setting": "ENSG00000145592, 5 replicates", "value": 1.808}, {"measurement": "change in translational profile of RPL37 caused by TGFβ", "setting": "ENSG00000145592, Control vs. TGFβ", "value": "E (E = <1.5 to 2.5)"}, {"measurement": "Log2 TE BTF3", "setting": "ENSG00000145741, 5 replicates", "value": 1.13}, {"measurement": "change in translational profile of BTF3 caused by TGFβ", "setting": "ENSG00000145741, Control vs. TGFβ", "value": "D (D = <1.0 to 1.5)"}, {"measurement": "Log2 TE HIGD2A", "setting": "ENSG00000146066, 5 replicates", "value": 1.196}, {"measurement": "change in translational profile of HIGD2A caused by TGFβ", "setting": "ENSG00000146066, Control vs. TGFβ", "value": "D (D = <1.0 to 1.5)"}, {"measurement": "Log2 TE SLC2A12", "setting": "ENSG00000146411, 5 replicates", "value": "−1.9708"}, {"measurement": "change in translational profile of CREB5 caused by TGFβ", "setting": "ENSG00000146592, Control vs. TGFβ", "value": "D (D = <1.0 to 1.5)"}, {"measurement": "Log2 TE ZNF92", "setting": "ENSG00000146757, 5 replicates", "value": "−1.238"}, {"measurement": "Log2 TE DENND2A", "setting": "ENSG00000146966, 5 replicates", "value": "−1.156"}, {"measurement": "change in translational profile of DENND2A caused by TGFβ", "setting": "ENSG00000146966, Control vs. TGFβ", "value": "C (C = <−1.0 to −1.5)"}, {"measurement": "Log2 TE RPL10", "setting": "ENSG00000147403, 5 replicates", "value": 1.691}, {"measurement": "change in translational profile of RPL10 caused by TGFβ", "setting": "ENSG00000147403, Control vs. TGFβ", "value": "E (E = <1.5 to 2.5)"}, {"measurement": "Log2 TE EIF3H", "setting": "ENSG00000147677, 5 replicates", "value": 1.329}, {"measurement": "change in translational profile of EIF3H caused by TGFβ", "setting": "ENSG00000147677, Control vs. TGFβ", "value": "E (E = <1.5 to 2.5)"}, {"measurement": "Log2 TE SHC3", "setting": "ENSG00000148082, 5 replicates", "value": "−1.541"}, {"measurement": "Log2 TE RPL7A", "setting": "ENSG00000148303, 5 replicates", "value": 1.65}, {"measurement": "change in translational profile of RPL7A caused by TGFβ", "setting": "ENSG00000148303, Control vs. TGFβ", "value": "E (E = <1.5 to 2.5)"}, {"measurement": "change in translational profile of EIF3M caused by TGFβ", "setting": "ENSG00000149100, Control vs. TGFβ", "value": "D (D = <1.0 to 1.5)"}, {"measurement": "Log2 TE RPS3", "setting": "ENSG00000149273, 5 replicates", "value": 1.518}, {"measurement": "change in translational profile of JPH2 caused by TGFβ", "setting": "ENSG00000149596, Control vs. TGFβ", "value": "F (F = >2.5)"}, {"measurement": "change in translational profile of FAU caused by TGFβ", "setting": "ENSG00000149806, Control vs. TGFβ", "value": "D (D = <1.0 to 1.5)"}, {"measurement": "Log2 TE CCDC102B", "setting": "ENSG00000150636, 5 replicates", "value": "−2.977"}, {"measurement": "change in translational profile of CCDC102B caused by TGFβ", "setting": "ENSG00000150636, Control vs. TGFβ", "value": "A (A = <−2.5)"}, {"measurement": "change in translational profile of FRMD4A caused by TGFβ", "setting": "ENSG00000151474, Control vs. TGFβ", "value": "C (C = <−1.0 to −1.5)"}, {"measurement": "Log2 TE CCDC122", "setting": "ENSG00000151773, 5 replicates", "value": "−1.004"}, {"measurement": "Log2 TE TMEM178", "setting": "ENSG00000152154, 5 replicates", "value": 2.016}, {"measurement": "Log2 TE HOMER1", "setting": "ENSG00000152413, 5 replicates", "value": 1.003}, {"measurement": "change in translational profile of HOMER1 caused by TGFβ", "setting": "ENSG00000152413, Control vs. TGFβ", "value": "D (D = <1.0 to 1.5)"}, {"measurement": "Log2 TE PLEKHH2", "setting": "ENSG00000152527, 5 replicates", "value": "−1.389"}, {"measurement": "change in translational profile of PLEKHH2 caused by TGFβ", "setting": "ENSG00000152527, Control vs. TGFβ", "value": "B (B = <−1.5 to −2.5)"}, {"measurement": "Log2 TE UTRN", "setting": "ENSG00000152818, 5 replicates", "value": "−1.085"}, {"measurement": "Log2 TE PTPRD", "setting": "ENSG00000153707, 5 replicates", "value": "−1.186"}, {"measurement": "change in translational profile of ANKH caused by TGFβ", "setting": "ENSG00000154122, Control vs. TGFβ", "value": "D (D = <1.0 to 1.5)"}, {"measurement": "Log2 TE ABCA6", "setting": "ENSG00000154262, 5 replicates", "value": "−2.167"}, {"measurement": "change in translational profile of ABCA6 caused by TGFβ", "setting": "ENSG00000154262, Control vs. TGFβ", "value": "A (A = <−2.5)"}, {"measurement": "change in translational profile of OBSCN caused by TGFβ", "setting": "ENSG00000154358, Control vs. TGFβ", "value": "B (B = <−1.5 to −2.5)"}, {"measurement": "Log2 TE NCAM2", "setting": "ENSG00000154654, 5 replicates", "value": "−1.135"}, {"measurement": "change in translational profile of ADAMTS5 caused by TGFβ", "setting": "ENSG00000154736, Control vs. TGFβ", "value": "C (C = <−1.0 to −1.5)"}, {"measurement": "change in translational profile of OXA1L caused by TGFβ", "setting": "ENSG00000155463, Control vs. TGFβ", "value": "D (D = <1.0 to 1.5)"}, {"measurement": "Log2 TE C9orf85", "setting": "ENSG00000155621, 5 replicates", "value": 1.112}, {"measurement": "change in translational profile of C9orf85 caused by TGFβ", "setting": "ENSG00000155621, Control vs. TGFβ", "value": "D (D = <1.0 to 1.5)"}, {"measurement": "Log2 TE FMN2", "setting": "ENSG00000155816, 5 replicates", "value": "−1.246"}, {"measurement": "Log2 TE CLIC2", "setting": "ENSG00000155962, 5 replicates", "value": "−2.392"}, {"measurement": "Log2 TE UQCRB", "setting": "ENSG00000156467, 5 replicates", "value": 1.048}, {"measurement": "Log2 TE RPL30", "setting": "ENSG00000156482, 5 replicates", "value": 1.622}, {"measurement": "change in translational profile of RPL30 caused by TGFβ", "setting": "ENSG00000156482, Control vs. TGFβ", "value": "E (E = <1.5 to 2.5)"}]}]}
